In patent US5567831A, “Non-steroidal sulfatase inhibitor compounds and their method of use” (Duguesne University of the Holy Ghost, priority 1995, dated 1996):

How the values were obtained:
[1] = rat, in vivo
[2] = target: T1, estrone sulfatase activity in intact MDA-MB-231 breast cancer cells (Homo sapiens, UniProt P08842); test: In vitro estrogen sulfatase assay on intact cell monolayers; type: cell-based; conditions: intact MDA-MB-231 monolayers, 18 hours at 37° C., [3H]E1S (2 nM), inhibitor 0.1 nM to 1 μM; read-out: apparent I.C. 50, concentration of the inhibitor to inhibit 50% of the sulfatase activity in the MDA-MB-231 cells
T1 construct: host or cells: MDA-MB-231
T1 sequence (P08842 22-583): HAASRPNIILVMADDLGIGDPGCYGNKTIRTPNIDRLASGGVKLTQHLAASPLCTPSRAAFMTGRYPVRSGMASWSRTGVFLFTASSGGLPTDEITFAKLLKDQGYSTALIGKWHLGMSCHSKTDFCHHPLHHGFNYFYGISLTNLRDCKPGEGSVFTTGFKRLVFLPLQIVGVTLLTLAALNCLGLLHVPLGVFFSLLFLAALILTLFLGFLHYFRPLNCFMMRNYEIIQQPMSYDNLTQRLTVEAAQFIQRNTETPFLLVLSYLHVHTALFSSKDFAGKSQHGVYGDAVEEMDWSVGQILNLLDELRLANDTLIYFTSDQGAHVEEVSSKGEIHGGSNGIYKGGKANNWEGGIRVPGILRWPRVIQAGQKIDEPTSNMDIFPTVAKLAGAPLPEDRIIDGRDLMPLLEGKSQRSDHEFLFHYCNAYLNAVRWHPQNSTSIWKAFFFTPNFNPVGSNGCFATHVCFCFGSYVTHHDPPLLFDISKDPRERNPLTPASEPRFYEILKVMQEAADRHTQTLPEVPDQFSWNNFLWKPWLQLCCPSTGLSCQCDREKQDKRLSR
Description: The in vitro sulfatase assay on intact cells involved a modification of the procedure of Duncan et al. ["Inhibition of estrone sulfatase activity by estrone 3-methylthiophosphonate", Cancer Res., Vol. 53, pp. 298-303 (1993)]. Intact nearly confluent monolayers of MDA-MB-231 (American Type Culture Collection) breast cancer cells in 6-well tissue-culture plates were washed with Hank's balanced salt solution (HBSS) and incubated for 18 hours at 37° C. with [^3 H]E1 S (5 pmol, 7×10^5 dpm) in serum-free Minimal Essential Medium (MEM) (2.5 ml) with or without test compounds (0.01 nM to 10 μM). After incubation, each dish was cooled and aliquots of the medium (0.5 ml) were pipetted into separate tubes containing 3 ml toluene. The mixture was shaken vigorously for 30 seconds and then centrifuged for 3 minutes at 2500 x g. Previous experiments have shown that >90% of estrone (E1) and <0.1% of […] (E1 S) is removed from the aqueous phase by this treatment. […] Radioactivity was determined using a Packard TriCarb scintillation counter with 50% efficiency for ^3 H. Each batch of experiments included dishes without cells (to assess apparent non-enzymatic hydrolysis of the substrate). […] Estrone sulfatase activity was determined from the amount of ^3 H-E1 tritiated estrone and ^3 H-E2 triated estradiol formed. […]

SMILES	estrogenicity in uterine weight gain assay [1]	IC50 [2] [nM]
C[C@]12CC[C@@H]3c4ccc(OS(N)(=O)=O)cc4CC[C@H]3[C@@H]1CCC2=O [estrone 3-0 sulfamate]	estrogenic	
CCCCCCCCCCCC(=O)NCCc1ccc(OS(N)(=O)=O)cc1 [N-lauroyl-(p-o-sulfamoyl) tyramine (C12), N-lauroyl-(p-o-sulfamoyl) tyramine]		1 to 2
